Type in all cases: cell-based
Test [1] deals with Pseudomonas aeruginosa UI-18: Wild-type (PA-7). In words: MIC determination (CLSI), strain PA-7. The following applies: Pseudomonas aeruginosa UI-18, wild-type; unit assumed. An outline of the steps:
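Strain tested was P. aeruginosa UI-18, a wild-type isolate labelled PA-7. Minimum inhibitory concentrations followed CLSI dilution methodology for aerobically growing bacteria (M7-A7, M100-S18).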

In test [2] the test system is Acinetobacter baumanii/haemolyticus: Multidrug-resistant clinical isolate (AB-3167). In words: MIC determination (CLSI), strain AB-3167. The following applies: unit assumed. The method, then: The in vitro antibacterial activity of compounds described in the Examples was evaluated by minimum inhibitory concentration (MIC) testing according to Clinical and Laboratory Standards Institute (CLSI, formerly NCCLS) guidelines. See: Clinical and Laboratory Standards Institute. Methods for Dilution Antimicrobial Susceptibility Tests for Bacteria that Grow Aerobically; Approved Standard-Seventh Edition. CLSI document M7-A7 [ISBN 1-56238-587-9]. Clinical and Laboratory Standards Institute, 940 West Valley Road, Suite 1400, Wayne, Pa. 19087-1898 USA, 2006; also Clinical and Laboratory Standards Institute. Performance Standards for Antimicrobial Susceptibility Testing; Eighteenth Informational Supplement. CLSI document M100-S18 [ISBN1-56238-653-0].Clinical and Laboratory Standards Institute.
The following bacterial strains were used in these MIC determinations:
2) Acinetobacter baumanii/haemolyticus: Multidrug-resistant clinical isolate labeled as AB-3167 in Tables 4 and 5;

Test [3] has as its system Escherichia coli EC-1: VOGEL, mouse virulent. In words: MIC determination (CLSI), strain EC-1. The following applies: Escherichia coli EC-1, VOGEL, mouse virulent; unit assumed. Put shortly:
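The mouse-virulent VOGEL isolate of E. coli, EC-1, served as test organism. Minimum inhibitory concentration was measured by CLSI dilution methodology (M7-A7; M100-S18 standards).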

Regarding `Cc1ccc(-c2ccn(CC[C@](C)(C(=O)NO)S(C)(=O)=O)c(=O)c2)cc1` [Example 16, (2R)-N-hydroxy-2-methyl-4-[4-(4-methylphenyl)-2-oxopyridin-1(2H)-yl]-2-(methylsulfonyl)butanamide], the PA-7 (MIC) in test [1] was 0.5 µg/mL. Further, the AB-3167 (MIC) in test [2] was greater than 64 µg/mL. This compound also gave an EC-1 (MIC) in test [3] of 0.5 µg/mL.

Turning to `COc1ccc(-c2ccn(CC[C@](C)(C(=O)NO)S(C)(=O)=O)c(=O)c2)cc1` [Example 17, (2R)-N-hydroxy-4-[4-(4-methoxyphenyl)-2-oxopyridin-1(2H)-yl]-2-methyl-2-(methylsulfonyl)butanamide], the PA-7 (MIC) in test [1] is 0.5 µg/mL. Besides, in test [2], the AB-3167 (MIC) was greater than 64 µg/mL. Also, the EC-1 (MIC) in test [3] amounted to 0.5 µg/mL.

`C[C@@](CCn1ccc(-c2ccc3c(c2)OCCO3)cc1=O)(C(=O)NO)S(C)(=O)=O` [Example 18, (2R)-4-[4-(2,3-dihydro-1,4-benzodioxin-6-yl)-2-oxopyridin-1(2H)-yl]-N-hydroxy-2-methyl-2-(methylsulfonyl)butanamide]: in test [1], the PA-7 (MIC) was found to be 1 µg/mL. In test [2], the AB-3167 (MIC) was greater than 64 µg/mL. This compound also displayed an EC-1 (MIC) in test [3] greater than 64 µg/mL.

In the case of `Cc1cc2cc(-c3ccn(CC[C@](C)(C(=O)NO)S(C)(=O)=O)c(=O)c3)ccc2[nH]1` [Example 19, (2R)-N-hydroxy-2-methyl-4-[4-(2-methyl-1H-indol-5-yl)-2-oxopyridin-1(2H)-yl]-2-(methylsulfonyl)butanamide], the PA-7 (MIC) in test [1] worked out at 2 µg/mL. The compound also displayed an AB-3167 (MIC) in test [2] greater than 64 µg/mL. This compound had an EC-1 (MIC) in test [3] of 1 µg/mL.

Consider `C[C@@](CCn1ccc(-c2ccc(Cl)cc2F)cc1=O)(C(=O)NO)S(C)(=O)=O` [Example 20, (2R)-4-[4-(4-chloro-2-fluorophenyl)-2-oxopyridin-1(2H)-yl]-N-hydroxy-2-methyl-2-(methylsulfonyl)butanamide], for which the PA-7 (MIC) in test [1] came out at 0.25 µg/mL. Also, the AB-3167 (MIC) in test [2] was greater than 64 µg/mL. Further, in test [3], the EC-1 (MIC) was 0.25 µg/mL.

On to `COc1ccc(-c2ccn(CC[C@](C)(C(=O)NO)S(C)(=O)=O)c(=O)c2)c(F)c1` [Example 21, (2R)-4-[4-(2-fluoro-4-methoxyphenyl)-2-oxopyridin-1(2H)-yl]-N-hydroxy-2-methyl-2-(methylsulfonyl)butanamide], for which the PA-7 (MIC) in test [1] stood at 0.25 µg/mL. The compound further yielded an AB-3167 (MIC) in test [2] of 32 µg/mL. Further, the EC-1 (MIC) in test [3] was 0.125 µg/mL.

`C[C@@](CCn1ccc(-c2c(F)ccc(F)c2F)cc1=O)(C(=O)NO)S(C)(=O)=O` [Example 22, (2R)-N-hydroxy-2-methyl-2-(methylsulfonyl)-4-[2-oxo-4-(2,3,6-trifluorophenyl)pyridin-1(2H)-yl]butanamide] returned a PA-7 (MIC) in test [1] of 4 µg/mL. In test [2], the AB-3167 (MIC) is greater than 64 µg/mL. The EC-1 (MIC) in test [3] came out at 2 µg/mL.

Take `Cc1nccc(-c2ccc(-c3ccn(CC[C@](C)(C(=O)NO)S(C)(=O)=O)c(=O)c3)cc2)n1` [Example 23, (2R)-N-hydroxy-2-methyl-4-{4-[4-(2-methylpyrimidin-4-yl)phenyl]-2-oxopyridin-1(2H)-yl}-2-(methylsulfonyl)butanamide]: the PA-7 (MIC) in test [1] was 2 µg/mL. Also, the AB-3167 (MIC) in test [2] was greater than 64 µg/mL. Besides, the EC-1 (MIC) in test [3] came out at 2 µg/mL.

`Cn1nccc1-c1ccc(-c2ccn(CC[C@](C)(C(=O)NO)S(C)(=O)=O)c(=O)c2)cc1` [Example 24, (2R)-N-hydroxy-2-methyl-4-{4-[4-(1-methyl-1H-pyrazol-5-yl)phenyl]-2-oxopyridin-1(2H)-yl}-2-(methylsulfonyl)butanamide]: the PA-7 (MIC) in test [1] came out at 2 µg/mL. In addition, in test [2], the AB-3167 (MIC) was greater than 64 µg/mL. The same compound returned an EC-1 (MIC) in test [3] of 1 µg/mL.

Turning to `Cc1nc(-c2ccc(-c3ccn(CC[C@](C)(C(=O)NO)S(C)(=O)=O)c(=O)c3)cc2)co1` [Example 25, (2R)-N-hydroxy-2-methyl-4-{4-[4-(2-methyl-1,3-oxazol-4-yl)phenyl]-2-oxopyridin-1(2H)-yl}-2-(methylsulfonyl)butanamide], the PA-7 (MIC) in test [1] was found to be 2 µg/mL. In test [2], the AB-3167 (MIC) is greater than 64 µg/mL. This compound displayed an EC-1 (MIC) in test [3] of 1 µg/mL.

These data come from patent US8846933B2, “N-link hydroxamic acid derivatives useful as antibacterial agents” (Pfizer Inc., priority 2009, dated 2014).
